Results published in BindingDB's records for doi:10.7270/Q2G73C2Z (University of Pittsburgh, 2007).
pIC50: −log10 of the molar value.

Target: T1, Dual specificity protein phosphatase 6 (Rattus norvegicus, UniProt Q64346)
T1 sequence (Q64346 whole entry): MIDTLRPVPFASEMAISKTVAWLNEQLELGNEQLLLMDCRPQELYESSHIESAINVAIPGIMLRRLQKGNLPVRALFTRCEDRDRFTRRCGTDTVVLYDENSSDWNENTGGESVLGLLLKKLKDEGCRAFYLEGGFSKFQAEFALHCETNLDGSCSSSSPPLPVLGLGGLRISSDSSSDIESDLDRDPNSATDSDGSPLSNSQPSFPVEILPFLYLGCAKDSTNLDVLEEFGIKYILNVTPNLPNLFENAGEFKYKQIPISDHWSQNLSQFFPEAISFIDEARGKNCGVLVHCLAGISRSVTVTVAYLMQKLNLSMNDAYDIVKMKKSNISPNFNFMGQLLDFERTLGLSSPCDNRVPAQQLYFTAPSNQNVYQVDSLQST
Test: MKP-3 phosphatase inhibitors, repeat potency, dose response, biochemical, rat DUSP6, reproducibility testing, probe assessment (AID 566)

Compound	pIC50
Cc1ccc(C)n1-c1cccc(C(=O)O)c1	< 4.30
O=C(Nc1ccc2nc(-c3ccco3)c(-c3ccco3)nc2c1)N1CCCCCC1	< 4.30
CCCCCC#CCC#CCC#CCC#CCCCC(=O)O	< 4.30
Cn1ncnc2c(=O)n(C)c(=O)nc1-2	6.27
[O-]/[N+](=C\c1ccncc1)c1ccccc1	< 4.30
O=C1C=Cc2ccccc2C1=O [1,2-dihydronaphthalene-1,2-dione]	< 4.30
Cc1nc2cc(-c3cccc(F)c3)nn2c(C)c1CCC(=O)N1CCC2(CC1)OCCO2 [1-(1,4-dioxa-8-azaspiro[4.5]decan-8-yl)-3-[2-(3-fluorophenyl)-5,7-dimethyl-6-pyrazolo[1,5-a]pyrimidinyl]-1-propanone]	< 4.30
CCn1nc(-c2ccccc2)nc2c(=O)n(C)c(=O)nc1-2 [1-Ethyl-6-methyl-3-phenyl-1H-pyrimido[5,4-e][1,2,4]triazine-5,7-dione]	6.25
Cc1cc(C)n2c(SCC(=O)N3CCN(S(=O)(=O)c4ccc(Cl)cc4)CC3)nnc2n1 [1-[4-(4-chlorophenyl)sulfonyl-1-piperazinyl]-2-[(5,7-dimethyl-[1,2,4]triazolo[4,3-a]pyrimidin-3-yl)thio]ethanone]	< 4.30
[O-]/[N+](=C\c1ccc(OC(F)F)cc1)c1ccccc1 [1-[4-(difluoromethoxy)phenyl]-N-phenylmethanimine oxide]	< 4.30
CCCCn1c(SCC(=O)c2ccc(OC)cc2OC)nc2cc(S(N)(=O)=O)ccc21 [1-butyl-2-[2-(2,4-dimethoxyphenyl)-2-oxidanylidene-ethyl]sulfanyl-benzimidazole-5-sulfonamide]	< 4.30
CCn1nc(-c2cccs2)nc2c(=O)n(C)c(=O)nc1-2 [1-ethyl-6-methyl-3-thiophen-2-yl-pyrimido[5,4-e][1,2,4]triazine-5,7-dione]	6.35
O=C(Nc1ccccc1)c1ccc2nc(-c3ccco3)c(-c3ccco3)nc2c1 [2,3-di-2-furyl-N-phenyl-6-quinoxalinecarboxamide]	< 4.30
CC(C)Cn1c(N)c(C(=O)COC(=O)c2cc(-c3ccco3)nc3ccccc23)c(=O)n(C)c1=O [2-(2-furanyl)-4-quinolinecarboxylic acid [2-[4-amino-1-methyl-3-(2-methylpropyl)-2,6-dioxo-5-pyrimidinyl]-2-oxoethyl] ester]	< 4.30
CCOc1ccc(-c2cc3nc(C4CCN(C(=O)OC(C)(C)C)CC4)c(C(=O)O)cn3n2)cc1 [2-(4-ethoxyphenyl)-5-[1-[(2-methylpropan-2-yl)oxy-oxomethyl]-4-piperidinyl]-6-pyrazolo[1,5-a]pyrimidinecarboxylic acid]	< 4.30
COc1ccc(-c2cc3nc(C4CCN(C(=O)OC(C)(C)C)CC4)c(C(=O)O)cn3n2)cc1 [2-(4-methoxyphenyl)-5-[1-[(2-methylpropan-2-yl)oxy-oxomethyl]-4-piperidinyl]-6-pyrazolo[1,5-a]pyrimidinecarboxylic acid]	< 4.30
Cc1cccc(NC(=O)c2cc(NC(=O)C3CCCCC3C(=O)O)ccc2N2CCCCC2)c1 (configuration not stated) [2-({[3-{[(3-methylphenyl)amino]carbonyl}-4-(1-piperidinyl)phenyl]amino}carbonyl)cyclohexanecarboxylic acid]	< 4.30
Cc1ccc(/C=C/C2=Cc3c(sc(NC(=O)CSc4nnc(N)[nH]4)c3C#N)C(C)(C)C2)o1 [2-[(5-azanyl-1H-1,2,4-triazol-3-yl)sulfanyl]-N-[3-cyano-7,7-dimethyl-5-[(E)-2-(5-methylfuran-2-yl)ethenyl]-6H-1-benzothiophen-2-yl]ethanamide]	< 4.30
CCCCNC(=O)c1c(N)n(CCCOC)c2nc3ccccc3nc12 [2-amino-N-butyl-1-(3-methoxypropyl)-3-pyrrolo[3,2-b]quinoxalinecarboxamide]	< 4.30

Compound	pIC50
N#Cc1c(N)sc(=S)c2c1CCN(Cc1ccccc1)C2 [3-Amino-7-benzyl-1-thioxo-5,6,7,8-tetrahydro-1H-thiopyrano[3,4-c]pyridine-4-carbonitrile]	5.68
O=C1C=C(NCc2ccc(Cl)c(Cl)c2)CC1 [3-[(3,4-dichlorobenzyl)amino]cyclopent-2-en-1-one]	< 4.30
CCCSc1nnc(NC(=O)c2sc3nc(-c4cccs4)ccc3c2N)s1 [3-amino-N-(5-propylsulfanyl-1,3,4-thiadiazol-2-yl)-6-thiophen-2-ylthieno[2,3-b]pyridine-2-carboxamide]	< 4.30
O=C1Nc2ccccc2SC(c2ccccc2)C1O (configuration not stated) [3-hydroxy-2-phenyl-2,3-dihydro-1,5-benzothiazepin-4(5H)-one]	< 4.30
CC(C)(C)N1C(=O)Cc2c1nc(N)c1c(N)nc(N3CCCCC3CO)c(C#N)c21 (configuration not stated) [5,6-bis(azanyl)-3-tert-butyl-8-[2-(hydroxymethyl)piperidin-1-yl]-2-oxidanylidene-1H-pyrrolo[2,3-c][2,7]naphthyridine-9-carbonitrile]	< 4.30
COc1cc(/C=C(/C#N)c2ccc(F)cc2)ccc1OCc1ccc(C(=O)O)o1 [5-({4-[2-cyano-2-(4-fluorophenyl)vinyl]-2-methoxyphenoxy}methyl)-2-furoic acid]	< 4.30
COc1ccc(Br)cc1C=c1sc2nc(-c3ccco3)nn2c1=O [5-[(5-bromanyl-2-methoxy-phenyl)methylidene]-2-(furan-2-yl)-[1,3]thiazolo[3,2-b][1,2,4]triazol-6-one]	< 4.30
CCOc1cc(/C=C(/C#N)c2ccc(F)cc2)ccc1OCc1ccc(C(=O)O)o1 [5-[[4-[(E)-2-cyano-2-(4-fluorophenyl)ethenyl]-2-ethoxyphenoxy]methyl]furan-2-carboxylic acid]	< 4.30
N#Cc1c(NC(=O)c2ccc(Br)o2)n(-c2ccccc2)c2nc3ccccc3nc12 [5-bromanyl-N-(3-cyano-1-phenyl-pyrrolo[3,2-b]quinoxalin-2-yl)furan-2-carboxamide]	4.81
Cc1cccc(N2CCN(C(=O)Cc3c(C(=O)O)[nH]c4ccc(Cl)cc34)CC2)c1C [5-chloranyl-3-[2-[4-(2,3-dimethylphenyl)piperazin-1-yl]-2-oxidanylidene-ethyl]-1H-indole-2-carboxylic acid]	< 4.30
CCCCCNC(=O)c1ccc2c(=O)[nH]c3c(C(=O)NCC4CCCO4)sc(=S)n3c2c1 (configuration not stated) [5-oxo-N3-(2-oxolanylmethyl)-N8-pentyl-1-sulfanylidene-4H-thiazolo[3,4-a]quinazoline-3,8-dicarboxamide]	< 4.30
Cc1nc2c(C(=O)NCCC3=CCCCC3)c[nH]n2c(=O)c1Cl [6-chloro-N-(2-cyclohex-1-en-1-ylethyl)-7-hydroxy-5-methylpyrazolo[1,5-a]pyrimidine-3-carboxamide]	< 4.30
O=C(c1cccs1)c1no[n+]([O-])c1C(=O)c1cccs1 [(5-oxidanidyl-4-thiophen-2-ylcarbonyl-1,2,5-oxadiazol-5-ium-3-yl)-thiophen-2-yl-methanone]	< 4.30
Nc1c(N2CCCC2)cc(Cl)c2nonc12 [(7-chloro-5-pyrrolidino-benzofurazan-4-yl)amine]	< 4.30
[O-]/[N+](=C/c1ccc(F)cc1)c1ccccc1 [(E)-(4-fluorobenzylidene)(phenyl)azane oxide]	< 4.30
CC1=C(/C=C/C(C)=C/C=C/C(C)=C/C(=O)O)C(C)(C)CCC1 [ALL-TRANS-RETINOIC ACID]	< 4.30
CC(=O)[C@@H]1[C@@H]2C(=O)N(c3ccc(F)c(Cl)c3)C(=O)[C@@H]2C2c3ccccc3C=CN21 (some centres not stated) [MLS000040594]	4.33
COCCCn1c(N)c(C(=O)NCCC(C)C)c2nc3ccccc3nc21 [MLS000041744]	< 4.30
CCn1c(SCC(=O)Nc2ccc3c(c2)c2ccccc2n3CC)nnc1-c1ccco1 [MLS000050867]	< 4.30

Compound	pIC50
O=C1C(=C2C(=O)c3ccccc3C2=O)Nc2ccccc21 [MLS000071738]	< 4.30
COc1ccc(-n2c(NC(=O)c3ccco3)c(C#N)c3nc4ccccc4nc32)cc1 [MLS000079925]	4.85
COc1ccc(Cn2c(C)nc3c(c2=O)c2nc4ccccc4nc2n3Cc2ccco2)cc1 [MLS000079944]	< 4.30
Cc1ccc(-c2csc(NC(=O)c3ccno3)n2)cc1 [MLS000081820]	< 4.30
CC(C)Sc1nc2sc3c(c2c2nnc(SCC(=O)NCc4ccco4)n12)CCCC3 [MLS000082957]	< 4.30
Nc1nc2c(s1)CCc1c-2cnn1-c1ccccc1 [MLS000085948]	< 4.30
Cc1cc(NC(=O)c2ccc(S(=O)(=O)N3CCCC3)cc2)nc2c1c(=O)oc1ccccc12 [MLS000091355]	< 4.30
FC(F)(F)c1ccc(N2CCOCC2)c(Nc2nc3ccccc3n3cnnc23)c1 [MLS000093276]	< 4.30
COC(=O)c1ccccc1NC(=O)CN1C(=O)C2CCCN2c2ncc(Cl)cc21 (configuration not stated) [MLS000094302]	< 4.30
CCc1ccc(NC(=O)CSc2nc3ccccc3c(=O)n2CCN2CCOCC2)cc1 [MLS000095236]	< 4.30
Cc1c(N=c2c(=O)c3ccccc3c2=O)c(=O)n(-c2ccccc2)n1C [MLS000105950]	5.09
CCOc1ccc2noc3c2c1C(=O)c1ccccc1-3 [MLS000106837]	< 4.30
COc1ccc2noc3c2c1C(=O)c1ccccc1-3 [MLS000106874]	4.65
CCOC(=O)c1ccc2c(c1)C1C=CCC1C(C(=O)O)N2 (configuration not stated) [MLS-0025126.0001]	< 4.30
O=C(NC1(O)C(=O)c2ccccc2C1=O)c1ccccc1 [N-(2-hydroxy-1,3-dioxo-2-indenyl)benzamide]	4.70
O=C(OC1CCCCC1)c1ccc2c(c1)C1C=CCC1C(C(=O)O)N2 (configuration not stated) [SMR000019385]	< 4.30
O=C1c2ccccc2-c2onc3ccc(NCCCn4ccnc4)c1c23 [SMR000044769]	< 4.30
CCCCn1c(NC(=O)c2ccccc2)c(C#N)c2nc3ccccc3nc21 [SMR000060333]	4.74
N#Cc1c(N2CCCC2)nc(N)c2c(N)nc(N3CCCC3)cc12 [SMR000061605]	5.46
